Source: patent US7247615B2, “Peptide agonists of prostate-specific antigen and uses therefor” (priority 2001, dated 2007)

Assays:
C1R-A2 cells = experiment: 111In release cytotoxic assay, peptide-pulsed targets; assay type: cell-based, human
T-PSA-3 cells = experiment: Cytometric Bead Array cytokine production by peptide-stimulated T cells; assay type: cell-based, human
Procedure: Detection of Cytokines. Supernatant of T cells exposed for 24 h to peptide-pulsed infected DC, rV-PSA infected DC, or rV-PSA-3A infected DC, in IL-2-free medium at various responder: stimulator ratios, were screened for secretion of IFN-γ using an ELISA kit (R & D Systems, Minneapolis, Minn.). The results were calculated as pg/ml. A Cytometric Bead Array (CBA) system (BD PharMingen, San Diego, Calif.) was also used to determine the secretion of multiple cytokines by specific T cell lines. The CBA system uses the fluorescence detection by flow cytometry to measure soluble analytes in a particle-based immunoassay. The BD human Th1/Th2 cytokine CBA Kit was employed to measure IL-2, IL-4, IL-5, IL-10, TNF-α, and IFN-γ protein levels in a single sample. The cytokine capture beads were mixed with PE-conjugated detection antibodies and then incubated with recombinant cytokine standards or test samples to form sandwich complexes. The samples results were generated in graphical and tabular format using BD CBA analysis software. The results were calculated as pg/ml.
The cytokine profile of T cells stimulated with APCs pulsed with either the PSA-3 or the PSA-3A peptide was then analyzed. The T cell line derived using the PSA-3 peptide was used in these studies, and the APCs used were autologous B cells. A Cytometric Bead Array (CBA) assay was used for analysis (see Examples section) using supernatant fluids obtained 24 h after stimulation. FIGS. 6A–6C illustrate […] of the 10 internal standards used for the calibration of the results obtained in this assay. FIGS. 6D–6F show the levels of each of six cytokines produced by T cells stimulated with APCs pulsed with no peptide, PSA-3A peptide, and PSA-3 peptide, respectively. […] The results obtained for IL-5 will be discussed below (Conclusions section).

[1] = system: HLA-A2/K^b transgenic mice; experiment: Immunization of HLA-A2.1/Kb transgenic mice with peptide-pulsed DCs, IFN-γ production by T cells; assay type: in vivo, mouse; settings: 24 h
From the text: Transgenic Mice. HLA-A2.1/K^b transgenic mice were kindly provided by Dr. L. Sherman (Scripps Laboratories, San Diego, Calif.). Transgenic mice express the product of the HLA-A2.1/Kb chimeric gene in which the alpha-3 domain of the heavy chain is replaced by mouse H-2/K^b domain, but the HLA-A2.1 alpha-1 and alpha-2 domains are unaltered (A. Vitiello et al., 1991, J. Exp. Med. 173:1007–1015; V. H. Engelhard et al., 1991, J. Immunol. 46:1226–1232).
In Vivo Immunization and Murine T cell Cultures. Three groups of HLA-A2.1/K^b transgenic mice (three mice per group) were immunized s.c. (subcutaneously) in the base of the tail with PSA-3 peptide-pulsed HLA-A2.1/K^b DC, PSA-3A peptide-pulsed DCs from HLA-A2.1/K^b transgenic mice, or DCs only. Peptides were used at a concentration of 50 μg/ml and DCs were used at 1×10^6 cell/mouse/injection. A total of three injections were given to each animal, 2 weeks apart. Mice injected with DCs only were used as controls. Mice were sacrificed 7 days after the last injection, and spleen cells were restimulated in vitro with 25 μg/ml of PSA-3 or PSA3A peptide with irradiated syngeneic spleen cell for 6 days. The cytokine production of these bulk cultures was tested. Peptide-pulsed Jurkat A2 (JA2 K^b) cells were used as stimulator cells. Jurkat 0201 K^b cells are stable transfectants of the human T cell leukemia line, Jurkat, which express the product of HLA-A0201K^b climeric gene (L. A. Sherman et al., 1992, Science 258:815–818).
The HLA-A2/K^b transgenic mouse has been previously reported to aid in the determination of the immunogenicity of HLA-A2 peptides for humans. This in vivo system was thus employed to further analyze and compare the immunogenicity of the PSA-3A peptide with that of the native PSA-3 peptide. DCs from the HLA-A2/K^b transgenic mice were pulsed with either the PSA-3 or the PSA-3A peptide and used to vaccinate HLA-A2b mice. DCs alone (no peptide) were also used as a control vaccine. After three vaccinations at 2-week intervals, T cells were isolated from splenocytes obtained 2 weeks after the last vaccination. The T cells were then incubated with Jurkat A2/K^b cells pulsed with the PSA-3 peptide, the PSA-3A peptide, or no peptide, and production of INF-γ was measured from supernatants after 24 h.

[2] = T-PSA-3 + peptide-pulsed autologous B cells, 24 h supernatant

## VLSNDVCAQV (SEQ ID NO:3) [PSA-3A]
C1R-A2 cells; T-PSA-3A line, C1R-A2 targets, E:T 25:1, FIG. 4A
  Fold less peptide than PSA-3 peptide necessary for lysis: approximately 8 fold
C1R-A2 cells; T-PSA-3 line, C1R-A2 targets, E:T 25:1
  Fold less peptide required to achieve similar levels of lysis: approximately 8 fold
C1R-A2 cells; peptide 25 μg/ml, IVS-3, two E:T ratios, FIG. 3A
  Lysis of peptide-pulsed C1R-A2 cells by T-PSA-3A line: to a greater extent than cells pulsed with the PSA-3 peptide
C1R-A2 cells; peptide 25 μg/ml, IVS-3, two E:T ratios, FIG. 3B
  Lysis of peptide-pulsed C1R-A2 cells by T-PSA-3 line: to a greater extent than those pulsed with the PSA-3A peptide
T-PSA-3 cells; T cells stimulated with PSA-3A as compared to PSA-3 peptide
  Production of IL-5: increase
T-PSA-3 cells; [2]
  Production of IFN-γ: greater production
  Production of IL-2: greater production
  Production of IL-4: Low or undetectable levels
  Production of IL-10: Low or undetectable levels
  Production of TNF-α: No TNF-α could be detected
[1]; label = peptide pulsed on immunizing DCs, Jurkat A2/K^b cells pulsed with PSA-3A (25 μg/ml)
  Production of IFN-γ: 6,218.9 pg/ml/10^6 cells
[1]; label = peptide pulsed on immunizing DCs, Jurkat A2/K^b cells with no peptide
  Production of IFN-γ: <37.0 pg/ml/10^6 cells
[1]; label = peptide pulsed on immunizing DCs, T cells restimulated with Jurkat A2/K^b cells pulsed with PSA-3 (25 μg/ml)
  Production of IFN-γ: 5,094.3 pg/ml/10^6 cells
[1]; mice immunized with DCs (no peptide), label = peptide pulsed on Jurkat A2/K^b cells
  Production of IFN-γ: <37.0 pg/ml/10^6 cells
